Test results published in US6337333B1, “Method of treating autoimmune disease with fludarabine-5′-monophosphate” (priority 1992, dated 2002).

Legend:
IgM production = assay: Cumulative IgM production in SAC + rIL-2 cultures, EIA; type: cell-based, human; conditions: for accumulation of IgM: 5 and 10 day SAC rIL-2 cultures, preliminary studies
Protocol: In FIG. 5, peripheral blood mononuclear cells (PBMC) enriched for B lymphocytes (BC89; 60% CD19, 59% CD20, 8% CD3) were continuously cultured at 5×10^5/ml and stimulated with Staphylococcus aureus Cowan I (SAC) plus interleukin 2 (IL-2) (50 U/ml) in the presence of 1.0 μg/ml of FLP. Recombinant IL-6 was added to 50 U/ml. After the culture period, the supernatants were harvested and assayed for huIgM by EIA. Results shown are from 1 representative experiment of 5 different experiments conducted with 5 different sources of leukocyte preparations. […]
(§1) In FIG. 7, peripheral blood mononuclear cells (PBMC) enriched for B lymphocytes (BC92; 35% CD19, 33% CD20, 35% CD3) were continuously cultured for 5 days in either medium alone, Staphylococcus aureus Cowan I (SAC) plus interleukin 2 (IL-2) (50 U/ml), or SAC plus IL-2 in the presence of various concentrations of FLP or 2-chlorodeoxyadenosine (2CDA). After 5 days of culture, the supernatants were harvested and serial dilutions of supernatant assayed for huIgM and huIgG by EIA. The presence of IgM rheumatoid factor (IgM-RF) was determined by EIA using the Vectastain Biotin-Streptavidin amplification system. Results are reported as O.D. 405 nm units. […] The results shown are from 1 representative experiment of 4 separate experiments conducted with 4 different sources of packed leukocytes.
(§2) In FIG. 8, peripheral blood mononuclear cells (PBMC) enriched for B lymphocytes (BC92, 35% CD19, 33% CD20, 35% CD3) were continuously cultured for 10 days in either medium alone, Staphylococcus aureus Cowan I (SAC) plus interleukin 2 (IL-2) (50 U/ml), or SAC plus IL-2 in the presence of various concentrations of FLP or 2CDA. At the end of the culture period, the supernatants were harvested and serial dilutions assayed for huIgM, huIgG, and IgM-RF by EIA. The cells were phenotyped by flowcytometry. Results are reported as O.D. 405 nm units. […] The results shown are from 1 experiment representative of 3 separate experiments conducted with 3 different sources of packed leukocytes.
(§3) In FIG. 9, peripheral blood mononuclear cells (PBMC) (BC93; 22% CD19, 20% CD20, 78% CD3) were continuously cultured for 5 days in either medium alone, Staphylococcus aureus Cowan I (SAC) plus interleukin 2 (IL-2) (50 U/ml) or 20% T cell conditioned medium (Tcm) in the presence of various concentrations of FLP. At the end of the 5 day culture period, the supernatants were harvested and serial dilutions assayed for huIgM, huIgG, and IgM-RF by EIA. The results are reported as O.D. 405 nm units. […] The results shown are from one representative experiment.
Immulon-2 (Dynatek Laboratories, #011-010-3450, Chantilly, Va.) flat-bottom 96 well microtiter plates were coated with 100 μl/well of a 2 μg/ml solution of goat F(ab′)2 anti-HuIgM (μ chain, CALTAG #H15100, So. San Francisco, Calif.) or goat F(ab′)2 anti-HuIgG (Fc sp., CALTAG #H10100) in 0.1 M sodium carbonate buffer, pH 9.6 overnight at 4° C. Uncoated wells were incubated with the carbonate buffer alone. The plates were rinsed and then incubated with 100 μl/well of 0.1% BSA/PBS for 1 hr at RT.

IgM-RF production = assay: Cumulative IgM-RF production in SAC + rIL-2 cultures, EIA; type: cell-based, human; conditions: for effect on measurable IgM-RF: FIG. 7C; for accumulation of IgM-RF: 5 and 10 day SAC rIL-2 cultures, preliminary studies
Description: as §1, §2, §3
The procedure to determine amounts of IgM-RF in culture supernatants was a modification of the methodology described above. Briefly, plates were coated with 100 μl/well of a 2.4 μg/ml solution of human IgG Fc fragments (Jackson ImmunoResearch, Chrompure #009-000-008) in 0.1 M sodium carbonate, pH 9.6 overnight at 4° C. The wells were blocked with 0.1% BSA/PBS for 1 hr at RT, and then serial dilutions of culture supernatant were cultured at 100 μl/well for 18-48 hrs at RT. A Vectastain Human IgM ABC-AP kit (Vector Laboratories, #AK-5009, Burlingame, Calif.) was used to develop the plates. […] Results are reported as O.D. units at 405 nm.

B lymphocytes = assay: B lymphocyte proliferative response to mitogen after 18 hr drug pretreatment (3H-thymidine); type: cell-based, human; conditions: 18 hr pretreatment; for % Suppression: B lymphocytes
Protocol: In FIG. 1, freshly isolated PBMC were enriched for T and B lymphocytes using Nylon Wool (see Materials and Methods, Example A). The enriched lymphocyte subpopulations were then incubated for 18 hrs at 37° C. with various concentrations of drug. At the end of the pretreatment period, the cell samples were washed, adjusted to 2×10^5 viable cells/ml, and cultured at 1×10^4/well in flat (B cells) or round (T cells) bottomed 96 well microtiter plates in […]. The T cells were incubated for 3 days with PHA-P ([…]) or Con A (5 μg/ml) and the B cells were cultured for 6 days with either PWM (2 μg/ml) or SAC ({fraction (1/60,000)}). 1 μCi of ^3H-thymidine was added per well during the last 18 hr of culture. The wells were then harvested onto glass fiber filters, and counted in 7 ml of Cytoscint (ICN) on the LKB 1219 Rackbeta scintillation counter. The results are expressed as the mean cpm of triplicate wells.
Peripheral blood mononuclear cells obtained from normal donors as packed leukocyte preparations were enriched for T and B lymphocytes and pretreated with drug for 18 hrs prior to mitogen stimulation.
Peripheral blood mononuclear cells enriched for either T or B lymphocytes were incubated for 18 hrs in complete S-10 medium at 37° C. in 12×75 mm culture tubes at 5×10^5 cells/ml. The cells were then washed in S-10 and cultured in triplicate for either 3 (T lymphocytes) or 6 (B lymphocytes) days at 2.5×10^4/well in round bottom 96-well microtiter plates in S-10 medium at 37° C. and a 5% CO2 humidified atmosphere. The wells were pulsed with 1 μCi 3H-thymidine for the last 18 hr of culture, harvested onto glass fiber filters, and counted with 7 ml Cytoscint with a LKB Rackbeta scintillation counter. The results are reported as “percent Suppression”:
% Suppression={1−(mean cpm exp./mean cpm stim control)}×100

[1] = B-CLL patients; cited from earlier work
[2] = one microgram per ml, 5 days, FIG. 7A

SMILES: Nc1nc(Cl)nc2c1ncn2[C@H]1C[C@H](O)[C@@H](CO)O1 [2CDA, 2-chlorodeoxyadenosine]
- accumulation of IgM (IgM production): dose-related decrease
- effect on IgM production (IgM production; [2]): block
- effect on IgM accumulation (IgM production; one microgram per ml, 10 days): block the accumulation
- effect on measurable IgM-RF (IgM-RF production; 1 μg/ml, 5 days): less effect
- effect on IgM-RF accumulation compared with FLP (IgM-RF production; 1 μg/ml, 10 days): characteristics similar to FLP
- accumulation of IgM-RF (IgM-RF production): dose-related decrease

SMILES: Nc1nc(F)nc2c1ncn2[C@@H]1O[C@H](COP(=O)(O)O)[C@@H](O)[C@@H]1O [FLP, fludarabine-5′-monophosphate]
- suppression of B lymphocyte's ability to respond to mitogen (B lymphocytes; FIG. 1B): suppress
- % Suppression (B lymphocytes; PWM (1 μg/ml), BC5, 1 μg/ml of drug): 59%
- % Suppression (B lymphocytes; PWM (1 μg/ml), BC5, 5 μg/ml of drug): 47%
- % Suppression (B lymphocytes; PWM (1 μg/ml), BC6, 1 μg/ml of drug): 11%
- % Suppression (B lymphocytes; PWM (1 μg/ml), BC6, 5 μg/ml of drug): 40%
- % Suppression (B lymphocytes; PWM (1 μg/ml), BC7, 1 μg/ml of drug): 16%
- % Suppression (B lymphocytes; PWM (1 μg/ml), BC7, 5 μg/ml of drug): 65%
- % Suppression (B lymphocytes; SAC I (1/60,000), BC5, 1 μg/ml of drug): 14%
- % Suppression (B lymphocytes; SAC I (1/60,000), BC5, 5 μg/ml of drug): 5%
- % Suppression (B lymphocytes; SAC I (1/60,000), BC6, 1 μg/ml of drug): 0%
- % Suppression (B lymphocytes; SAC I (1/60,000), BC6, 5 μg/ml of drug): 49%
- % Suppression (B lymphocytes; SAC I (1/60,000), BC7, 1 μg/ml of drug): 55%
- % Suppression (B lymphocytes; SAC I (1/60,000), BC7, 5 μg/ml of drug): 73%
- effect on IgM accumulation (IgM production; 0.1 μg/ml, 10 days, FIG. 8A): minimal effect
- reduction of IgM accumulation (IgM production; 1 μg, 10 days, FIG. 8A): 80%
- detectable IgM in supernatants (IgM production; 1.0 μg/ml, 5 day cultures, FIG. 5): background levels
- reduction of IgM accumulation (IgM production; 5 μg, 10 days, FIG. 8A): 98%
- effect on IgM accumulation (IgM production; 5 μg/ml, 5 days, FIG. 7A): block any measurable IgM accumulation
- effect on IgM accumulation (IgM production; 0.1 and 0.5 μg/ml, PBMC, 5 days, cultures containing rIL-2 or 20% T cell conditioned medium, FIG. 9A): reduce
- accumulation of IgM (IgM production): dose-related decrease
- effect on IgM production (IgM production; one hundred nanograms per ml, 5 days, FIG. 7A): minimal effect
- effect on IgM production (IgM production; [2]): intermediate effect
- peak concentration of F-ara-ATP in the lymphocytes relative to the serum peak [1]: 10 fold
- IgM-RF production (IgM-RF production; 0.1 μg/ml, 10 days, FIG. 8C): 50 % of control
- effect on measurable IgM-RF (IgM-RF production; 1 μg/ml, 5 days): reduce the measurable IgM-RF
- level of measurable IgM-RF (IgM-RF production; 5 μg, 10 days, FIG. 8C): below the medium control levels
- effect on measurable IgM-RF (IgM-RF production; 5 μg/ml, 5 days): reduce the measurable IgM-RF
- effect on IgM-RF accumulation (IgM-RF production; 0.1 and 0.5 μg/ml, PBMC, 5 days, cultures containing rIL-2 or 20% T cell conditioned medium, FIG. 9C): reduce
- accumulation of IgM-RF (IgM-RF production): dose-related decrease
